According to patent publication US8461183B2, “PPAR agonist compounds, preparation and uses” (Genfit, priority 2008, dated 2013):

What was measured:
Assay type in all cases: cell-based
[1] = tested on: PPARδ target genes (PDK4, CPT1b, UCP2) in murine myocytes; experiment: Expression of PPARδ target genes in murine myocytes (differentiated C2C12 cells); conditions: 24 hours, Cpd 7 at 0.1, 1, 10 μM, Cpd 24 at 0.2, 2, 20 μM, normalized to 36B4
Experimental: The PPARδ agonist properties previously measured in vitro were evaluated by measuring, in murine myocytes, the expression of genes involved in lipid and carbohydrate metabolism and energy expenditure (PDK4, CPT1b, UCP2). Regulation of expression of these genes, in this cell type, is a direct consequence of the activation of PPARδ by the compounds according to the invention. The greater the increase in expression of the genes, the more the compound according to the invention is a stimulator of metabolism in muscle cells (Dressel U et al., 2003).
The C2C12 murine cells (from ECACC) are cultivated in DMEM medium (Gibco; 41965-039) supplemented with 1% L-glutamine (Gibco; 25030), 1% penicillin/streptomycin (VWR; BWSTL0022/100) and 10% decomplemented fetal calf serum (FCS. Gibco; 10270-106).
The cells are seeded in 24-well plates at a density of 50×10^3 cells/well. At confluence, the medium is replaced with a differentiation medium (base culture medium supplemented with 2% of horse serum (Gibco; 26050-088)) then culture is continued at 37° C. and 5% CO2 for 7 days in order to permit differentiation of the myoblasts into myocytes.
After 6 days of differentiation, the cells are put in a deprivation medium (base culture medium without serum) for 6 hours. The cells are then treated with the compounds according to the invention in the deprivation medium. The compounds according to the invention were tested at doses of 0.1, 1, 10 μM and 0.2, 2 and 20 μM respectively. The compounds according to the invention were dissolved in dimethylsulfoxide (DMSO, Sigma; D5879). The cells are treated for 24 hours at 37° C., 5% CO2. The effects for the compounds tested were compared with the effect of DMSO alone at a concentration of 0.1%.
These procedures were performed on the cells essentially as described in Example 10 (point c) of the Protocols.
The following primer pairs specific to the genes investigated were used: […]

[2] = target: T1, hPPARγ (Homo sapiens, UniProt P37231); experiment: Gal4-hPPARγ chimera transactivation (luciferase) in COS-7 cells; conditions: 24 hours; for EC50: luciferase, read-out: PPARγ EC50; for Emax: relative to maximum activation obtained with rosiglitazone, read-out: PPARγ TOP % (maximum activation)
T1 construct: corresponding to the DEF domains (structural elements of the promoter of the PPARs: D=hinge, EF=ligand fixation domain and AF2 fixation site); expressed in transfected cells; host or cells: COS-7 (monkey kidney fibroblasts)
T1 sequence (P37231 238-503 limits assumed): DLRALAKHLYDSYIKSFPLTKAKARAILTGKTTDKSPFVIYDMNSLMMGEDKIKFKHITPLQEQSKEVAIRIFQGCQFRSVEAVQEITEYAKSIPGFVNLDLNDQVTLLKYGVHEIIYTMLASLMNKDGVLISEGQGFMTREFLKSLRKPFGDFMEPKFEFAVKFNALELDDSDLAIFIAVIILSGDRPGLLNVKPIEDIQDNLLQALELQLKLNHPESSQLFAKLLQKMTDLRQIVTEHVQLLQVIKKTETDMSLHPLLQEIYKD
Experimental: (§1) Activation of PPARs is evaluated in vitro on a line of monkey kidney fibroblasts (COS-7) by measuring the transcriptional activity of chimeras consisting of the DNA binding domain of Gal4 transcription factor of yeast and of the ligand binding domain of the various PPARs of human origin (hPPAR).
(§2) The COS-7 cells are from ATCC and are cultivated in DMEM medium supplemented with 10% (vol/vol) of fetal calf serum, 1% of penicillin/streptomycin (Biochrom, AG), 1% of amino acids (Gibco) and 1% of sodium pyruvate (Gibco). The cells are incubated at 37° C. in a humid atmosphere containing 5% CO2.
(§3) The plasmids Gal4(RE)_TkpGL3, pGal4-hPPARα, pGal4-hPPARγ, pGal4-hPPARδ and pGal4-φ are described in the literature (Raspe E et al., 1999). The constructs pGal4-hPPARα, pGal4-hPPARγ and pGal4-hPPARδ were obtained by cloning, into the pGal4-φ vector, DNA fragments amplified by PCR corresponding to the DEF domains (structural elements of the promoter of the PPARs: D=hinge, EF=ligand fixation domain and AF2 fixation site) of the human nuclear receptors PPAα, PPARγ and PPARδ.
(§4) The adherent COS-7 cells are transfected with 40 μg of DNA per 225 cm^2 flask, with a pGal4-hPPAR/Gal4(RE)_TkpGL3 ratio of 1/10, in the presence of 10% of fetal calf serum. The cells are then detached and seeded in the absence of serum in 384-well plates (2×10^4 cells/well) then incubated for 4 hours at 37° C. The compounds are then diluted in a 96-well plate and then transferred to the 384-well plate. Activation with the test compounds is effected for a further 24 hours at 37° C. in the presence of 1% of synthetic serum Ultroser™ (Biosepra). These last 2 stages are automated by means of a Genesis Freedom 200™ station (Tecan). At the end of the experiment, the cells are lysed and the luciferase activity is determined using the Steady-Lite™ HTS (Perkin Elmer) according to the supplier's recommendations.
(§5) The test data are summarized in Table 8-1 below, which presents, for each compound, the values of maximum activation (TOP %) and the EC50 values measured for each isoform of PPAR.

[3] = target: T2, hPPARα (Homo sapiens, UniProt Q07869); experiment: Gal4-hPPARα chimera transactivation (luciferase) in COS-7 cells; conditions: COS-7 cells, Gal4-hPPARα, 24 hours; for EC50: luciferase, read-out: PPARα EC50; for Emax: relative to maximum activation obtained with fenofibric acid, read-out: PPARα TOP % (maximum activation)
T2 construct: corresponding to the DEF domains (structural elements of the promoter of the PPARs: D=hinge, EF=ligand fixation domain and AF2 fixation site); expressed in transfected cells; host or cells: COS-7 (monkey kidney fibroblasts)
T2 sequence (Q07869 239-466 limits assumed): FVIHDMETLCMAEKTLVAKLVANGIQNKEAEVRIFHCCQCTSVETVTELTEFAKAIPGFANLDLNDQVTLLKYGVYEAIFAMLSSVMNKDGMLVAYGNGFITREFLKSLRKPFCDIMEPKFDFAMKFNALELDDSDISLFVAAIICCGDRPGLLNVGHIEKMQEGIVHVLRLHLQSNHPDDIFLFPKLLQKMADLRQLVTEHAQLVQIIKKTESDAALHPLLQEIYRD
Experimental: as §1, §2, §3, §4
The test data are summarized in Table 8-1 below, which presents, for each compound, the values of maximum activation (TOP %) and the EC50 values measured for each isoform of PPAR. The values of maximum activation are expressed in percentages relative to the maximum activations obtained with reference agonists: fenofibric acid for PPARα, rosiglitazone for PPARγ and 2-methyl-4-((4-methyl-2-(4-trifluoromethylphenyl)-1,3-thiazol-5-yl)-methylsulfanyl)phenoxyacetic acid (also called GW501516) for PPARδ.

[4] = target: T3, hPPARδ (Homo sapiens, UniProt Q03181); experiment: Gal4-hPPARδ chimera transactivation (luciferase) in COS-7 cells; conditions: for EC50 / Emax: COS-7 cells, Gal4-hPPARδ, 24 hours; for EC50: luciferase, read-out: PPARδ EC50; for Emax: relative to maximum activation obtained with GW501516, read-out: PPARδ TOP % (maximum activation)
T3 construct: corresponding to the DEF domains (structural elements of the promoter of the PPARs: D=hinge, EF=ligand fixation domain and AF2 fixation site); expressed in transfected cells; host or cells: COS-7 (monkey kidney fibroblasts)
T3 sequence (Q03181 211-439 limits assumed): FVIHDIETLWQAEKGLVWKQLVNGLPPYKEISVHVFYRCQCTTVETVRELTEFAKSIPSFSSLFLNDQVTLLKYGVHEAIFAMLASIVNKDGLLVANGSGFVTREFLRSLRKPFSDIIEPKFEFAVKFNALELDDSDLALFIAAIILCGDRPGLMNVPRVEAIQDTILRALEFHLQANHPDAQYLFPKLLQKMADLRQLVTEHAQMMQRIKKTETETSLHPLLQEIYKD
Experimental: as §1, §2, §3, §4, §5

EC50 [2] [µM] | Emax [2] [%] | EC50 [3] [µM] | Emax [3] [%] | EC50 [4] [µM] | selectivity among hPPAR isoforms (hPPARδ) ([4]; Gal4-hPPAR chimeras, COS-7) | Emax [4] [%] | Structure (SMILES) | expression of CPT1b [1] | expression of PDK4 [1] | expression of UCP2 [1]
46.8 | 20.6 | 39.6 | 28.9 | 0.55 | selective with respect to hPPARδ | 96.5 | CC(C)(C)Oc1nc(-c2ccccc2)ccc1COc1ccc(OCC(=O)O)cc1 [Cpd 7] | significant effects of stimulating expression | significant effects of stimulating expression | significant effects of stimulating expression
4.04 | 73.2 | 3.62 | 51.1 | 0.408 | – | 123 | COc1ncc(-c2ccc(Cl)cc2)cc1CNc1ccc(CCC(=O)O)cc1 [Cpd 49, 3-(4-(((5-(4-chlorophenyl)-2-methoxypyridin-3-yl)methyl)amino)phenyl)-propanoic acid] | – | – | –
5.18 | 70 | 0.51 | 78 | 3.37 | – | 85.2 | COc1nc(-c2ccccc2)ccc1CNc1ccc(SCC(=O)O)cc1 [Cpd 16, 2-(4-(((2-methoxy-6-phenylpyridin-3-yl)methyl)amino)phenylthio)ethanoic acid] | – | – | –
1.08 | 85 | 1.9 | 58.6 | 1.91 | – | 79.2 | COc1ncc(-c2cccc(C(F)(F)F)c2)cc1CNc1ccc(CCC(=O)O)cc1 [Cpd 47, 3-(4-(((2-methoxy-5-(3-(trifluoromethyl)phenyl)pyridin-3-yl)methyl)amino)-phenyl)propanoic acid] | – | – | –
12.4 | 65 | 4.55 | 49.9 | 10.5 | – | 74.5 | COc1nc(-c2ccccc2)ccc1CN(C)c1ccc(CCC(=O)O)cc1 [Cpd 33, 3-(4-(((2-methoxy-6-phenylpyridin-3-yl)methyl)(methyl)amino)phenyl)-propanoic acid] | – | – | –
4.36 | 65.8 | 5.66 | 16.5 | 3.04 | – | 86.5 | COc1nc(-c2ccccc2)ccc1CNc1ccc(C(CC(=O)O)c2ccccc2)cc1 (stereo not shown) [Cpd 42, 3-(4-((2(-methoxy-6-phenylpyridin-3-yl)methyl)amino)phenyl)-3-phenyl-propanoic acid] | – | – | –
14.2 | 26.1 | 10.7 | 35.3 | 3.97 | – | 97.1 | O=C(O)COc1ccc(OCc2ccc(-c3ccccc3)nc2OC2CCCCC2)cc1 [Cpd 18, 2-(4-((2-cyclohexyloxy-6-phenylpyridin-3-yl)methoxy)phenoxy)ethanoic acid] | – | – | –
2.84 | 75.6 | 0.044 | 65.3 | 0.501 | – | 85.4 | COc1nc(-c2ccc(C(F)(F)F)cc2)ccc1CNc1ccc(SCC(=O)O)cc1 [Cpd 23, 2-(4-(((2-methoxy-6-(4-(trifluoromethyl)phenyl)pyridin-3-yl)methyl)amino)-phenylthio)ethanoic acid] | – | – | –
3.72 | 57.3 | 0.389 | 67.5 | 6.17 | – | 71 | COc1nc(-c2ccccc2)ccc1CNc1ccc(OC(C)C(=O)O)cc1 (stereo not shown) [Cpd 5, 2-(4-(((2-methoxy-6-phenylpyridin-3yl)methyl)amino)phenoxy)propanoic acid] | – | – | –
6.09 | 23.9 | 4.5 | 33.7 | 0.464 | – | 74.2 | CC(C)(C)Oc1nc(-c2ccccc2)ccc1CNc1ccc(OC(C)(C)C(=O)O)cc1 [Cpd 9, 2-(4-(((2-tert-butyloxy-6-phenylpyridin-3-yl)methyl)amino)phenoxy)-2-methyl-propanoic acid] | – | – | –
10.5 | 25.6 | 6.06 | 53.2 | 0.754 | – | 96.7 | CC(Oc1ccc(NCc2ccc(-c3ccccc3)nc2OC(C)(C)C)cc1)C(=O)O (stereo not shown) [Cpd 10, 2-(4-(((2-tert-butyloxy-6-phenylpyridin-3-yl)methyl)amino)phenoxy)propanoic acid] | – | – | –
8.43 | 57.7 | 3.85 | 59.3 | 10.1 | – | 85.6 | COc1nc(-c2ccccc2)c(Br)cc1CNc1ccc(SCC(=O)O)cc1 [Cpd 29, 2-(4-(((2-methoxy-5-bromo-6-phenylpyridin-3-yl)methyl)amino)phenylthio)-ethanoic acid] | – | – | –
